Measured values taken from patent US12351569B2, “ALDH-2 inhibitor compounds and methods of use” (Amygdala Neurosciences, Inc., priority 2022, dated 2025).

Key:
recombinant human ALDH-2 = target: T1, recombinant human ALDH-2 (Homo sapiens, UniProt P05091); experiment: ALDH-2 inhibition assay; type: biochemical; conditions: 60 min pre-incubation; 10 μM = highest concentration tested; read-out: Enzymatic Assays IC50 ALDH2
T1 sequence (P05091 18-517): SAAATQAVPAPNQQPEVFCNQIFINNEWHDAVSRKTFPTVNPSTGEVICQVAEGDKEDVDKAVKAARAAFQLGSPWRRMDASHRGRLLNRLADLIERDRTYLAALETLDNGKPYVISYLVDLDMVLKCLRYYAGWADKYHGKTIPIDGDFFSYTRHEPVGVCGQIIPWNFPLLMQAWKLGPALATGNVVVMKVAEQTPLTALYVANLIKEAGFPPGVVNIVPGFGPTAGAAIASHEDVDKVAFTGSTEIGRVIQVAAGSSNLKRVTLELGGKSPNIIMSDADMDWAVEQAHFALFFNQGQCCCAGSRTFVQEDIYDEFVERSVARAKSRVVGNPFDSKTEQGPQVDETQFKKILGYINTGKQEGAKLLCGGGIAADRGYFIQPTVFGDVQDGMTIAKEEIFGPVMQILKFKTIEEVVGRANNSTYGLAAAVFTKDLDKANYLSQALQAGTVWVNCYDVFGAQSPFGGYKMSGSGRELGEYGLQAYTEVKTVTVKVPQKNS
Procedure: A. ALDH-2 inhibition assay: The ALDH-2 reaction mixture used in the assay contained 125 μM formaldehyde, 75 μM NAD+, 20 mM NaCl, 10 mM MgCl2, and 20 nM recombinant human ALDH-2 in 50 mM Hepes buffer, pH 7.5 in a final volume of 10 μL using 384-well Corning 3820 plates. After 60 min of pre-incubation of the test ALDH-2 inhibitor compound with ALDH-2, the reaction was started by adding NAD+ and formaldehyde and the assay reaction mixture was allowed to proceed for 60 minutes. Activity of the ALDH-2 enzyme was determined by monitoring NADH formation using Perkin-Elmer Envision Reader with excitation and emission wavelengths set at 340 and 460 nm, respectively.

recombinant human ALDH-1 = target: T2, recombinant human ALDH-1 (Homo sapiens, UniProt P00352); experiment: ALDH-1 inhibition assay; type: biochemical; conditions: 60 min pre-incubation; 10 μM = highest concentration tested; read-out: Enzymatic Assays IC50 ALDH1
T2 sequence (P00352 1-501): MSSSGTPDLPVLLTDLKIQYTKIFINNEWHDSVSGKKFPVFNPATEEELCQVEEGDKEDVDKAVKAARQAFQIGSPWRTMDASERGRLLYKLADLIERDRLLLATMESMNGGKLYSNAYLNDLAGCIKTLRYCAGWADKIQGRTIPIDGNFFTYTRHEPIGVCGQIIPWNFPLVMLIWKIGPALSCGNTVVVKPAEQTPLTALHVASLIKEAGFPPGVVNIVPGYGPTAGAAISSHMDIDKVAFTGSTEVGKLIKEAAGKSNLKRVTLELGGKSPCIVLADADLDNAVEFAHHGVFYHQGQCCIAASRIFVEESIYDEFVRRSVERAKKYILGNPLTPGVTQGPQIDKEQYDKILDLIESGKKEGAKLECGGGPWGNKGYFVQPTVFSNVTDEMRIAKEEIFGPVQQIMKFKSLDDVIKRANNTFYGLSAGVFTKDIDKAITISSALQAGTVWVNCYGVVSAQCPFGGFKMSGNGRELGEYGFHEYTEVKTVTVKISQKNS
Procedure: B. ALDH-1 inhibition assay: The ALDH-1 reaction mixture used in the assay contained 100 μM formaldehyde, 2.5 mM NAD+, 20 mM NaCl, 10 mM MgCl2, 1 mM dithiothreitol (DTT; reducing agent), and 50 nM recombinant human ALDH-1 in 50 mM Hepes buffer, pH 7.5 in a final volume of 10 μL using 384-well Corning 3820 plates. After 60 min of pre-incubation of the test ALDH-2 inhibitor compound with ALDH-1, the reaction was started by adding NAD+ and formaldehyde and the assay reaction mixture was allowed to proceed for 60 minutes. Activity of the ALDH-1 enzyme was determined by monitoring NADH formation using Perkin-Elmer Envision Reader with excitation and emission wavelengths set at 340 and 460 nm, respectively.

MAO-A = target: T3, MAO-A (Homo sapiens, UniProt P21397); experiment: MAO-A inhibition assay (luminogenic substrate); type: biochemical; conditions: 20 min pre-incubation; 10 μM = highest concentration tested; read-out: Enzymatic Assays IC50 MAO-A
T3 sequence (P21397 1-527): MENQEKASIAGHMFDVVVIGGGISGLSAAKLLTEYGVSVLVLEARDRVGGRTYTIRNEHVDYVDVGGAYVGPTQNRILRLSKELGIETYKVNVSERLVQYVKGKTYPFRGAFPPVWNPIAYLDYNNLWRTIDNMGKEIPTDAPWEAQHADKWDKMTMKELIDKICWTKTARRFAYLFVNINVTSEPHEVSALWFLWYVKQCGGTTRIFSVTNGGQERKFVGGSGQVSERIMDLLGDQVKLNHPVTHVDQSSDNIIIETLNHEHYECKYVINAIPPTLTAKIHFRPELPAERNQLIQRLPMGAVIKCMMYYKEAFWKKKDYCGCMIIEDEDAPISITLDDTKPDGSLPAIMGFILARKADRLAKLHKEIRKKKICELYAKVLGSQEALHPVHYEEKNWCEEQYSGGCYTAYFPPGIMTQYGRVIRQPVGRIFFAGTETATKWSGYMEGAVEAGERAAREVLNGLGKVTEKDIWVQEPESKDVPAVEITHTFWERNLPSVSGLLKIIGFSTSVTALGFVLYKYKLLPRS
Procedure: (§1) D. MAO-A and MAO-B inhibition assays: MAO assays included luminogenic MAO substrate, reaction buffers, Luciferin Detection, and a reconstitution buffer with esterase. The MAO reaction mixture used in the assay included microsome contained MAO-A (2 μg) or MAO-B (10 μg), 160 μM substrate for MAO-A or 16 μM substrate for MAO-B, MAO-A buffer (100 mM Hepes buffer, pH 7.5, 5% glycerol) or MAO-B buffer (100 mM Hepes, pH 7.5, 5% glycerol, 10% dimethyl sulfoxide) in a final volume of 30 μL. After 20 minutes of pre-incubation of the MAO-A or MAO-B enzyme with the test ALDH-2 inhibitor compound, the reaction was initiated by adding enzyme substrate and the […] reaction was allowed to proceed for 60 minutes. Reconstituted Luciferin Detection Reagent (30 μL) was then added is added to simultaneously stop the MAO reaction and convert the methyl ester derivative to luciferin and produce light. The amount of light produced is directly proportional to the activity of MAO. The mixtures were further incubated for 20 minutes and activity of the enzyme was determined using Perkin-Elmer Envision Reader.

MAO-B = target: T4, MAO-B (Homo sapiens, UniProt P27338); experiment: MAO-B inhibition assay (luminogenic substrate); type: biochemical; conditions: 20 min pre-incubation; 10 μM = highest concentration tested; read-out: Enzymatic Assays IC50 MAO-B
T4 sequence (P27338 1-520): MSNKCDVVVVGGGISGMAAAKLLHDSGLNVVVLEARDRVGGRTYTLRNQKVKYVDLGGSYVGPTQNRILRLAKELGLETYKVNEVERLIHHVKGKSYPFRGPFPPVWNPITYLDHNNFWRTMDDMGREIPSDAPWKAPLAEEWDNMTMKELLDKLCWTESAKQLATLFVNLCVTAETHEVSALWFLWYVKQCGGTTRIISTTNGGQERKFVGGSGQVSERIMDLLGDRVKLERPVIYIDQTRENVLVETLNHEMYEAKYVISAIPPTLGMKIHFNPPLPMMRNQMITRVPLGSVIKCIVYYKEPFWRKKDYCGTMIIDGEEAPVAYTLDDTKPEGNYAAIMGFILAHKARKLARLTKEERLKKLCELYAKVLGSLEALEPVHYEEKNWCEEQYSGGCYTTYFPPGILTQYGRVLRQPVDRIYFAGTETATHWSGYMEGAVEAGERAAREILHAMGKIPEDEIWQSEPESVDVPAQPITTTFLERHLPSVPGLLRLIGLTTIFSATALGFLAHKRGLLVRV
Procedure: as §1

HepaRG spheroids = experiment: HepaRG 3D spheroid assay (hepatotoxic liability); type: cell-based; conditions: minimum effective concentration crossing vehicle control threshold of cell health marker; dosed days 1, 4, 7, 10, 13; 100 μM = highest concentration tested
From the text: See e.g., Walker et al., “The evolution of strategies to minimise the risk of human drug-induced liver injury (DILI) in drug discovery and development,” (2020) Archives of Toxicology, Vol. 94: 2559-2585, which is hereby incorporated by reference herein in its entirety. […] In applying the HepaRG spheroid assay analysis to determining the hepatoxic liability of ALDH-2 inhibitor compounds, consideration is made of the binding to plasma protein and the limitations to CNS penetration due to the blood-brain barrier.
E. HepaRG® 3D spheroid assay: The HepaRG 3D spheroid assay is described in Walker et al., “The evolution of strategies to minimise the risk of human drug-induced liver injury (DILI) in drug discovery and development,” (2020) Archives of Toxicology, Vol. 94: 2559-2585. Briefly, HepaRG® cells were seeded into ultra-low adhesion 96-well black walled clear bottomed spheroid microplates. […] At the end of the incubation period, the spheroids were loaded with the relevant dye/antibody for each cell health marker (spheroid count, spheroid size, DNA structure, mitochondrial mass, mitochondrial membrane potential, oxidative stress, glutathione content, and cellular ATP). The plates were then scanned using an automated fluorescent cellular imager, ArrayScan® (Thermo Scientific Cellomics).

SMILES | IC50 (recombinant human ALDH-2) [µM] | IC50 (recombinant human ALDH-1) [µM] | IC50 (MAO-A) [µM] | IC50 (MAO-B) [µM] | HepaRG 3D Spheroid MEC (HepaRG spheroids)
Cc1cccc(Cl)c1C(=O)NCc1ccc(N2CCNC(=O)C2)nc1 [(1a), 2-chloro-6-methyl-N-((6-(3-oxopiperazin-1-yl)pyridin-3-yl)methyl)benzamide] | 0.012 | > 10 | > 10 | > 10 | 54.1 µM
O=C1CN(c2ccc(CNC(=O)c3ccccc3Cl)cn2)CCN1 [(1b), 2-Chloro-N-((6-(3-oxopiperazin-1-yl)pyridin-3-yl)methyl)benzamide] | 0.058 | > 10 | > 10 | > 10 | No Effect
Cc1nccc(Cl)c1C(=O)NCc1ccc(N2CCNC(=O)C2)nc1 [(1c), 4-Chloro-2-methyl-N-((6-(3-oxopiperazin-1-yl)pyridin-3-yl)methyl)nicotinamide] | 0.035 | > 10 | > 10 | > 10 | No Effect
O=C1CN(c2ccc(CNC(=O)c3c(Cl)cccc3Cl)cn2)CCN1 [(1d), 2,6-Dichloro-N-((6-(3-oxopiperazin-1-yl)pyridin-3-yl)methyl)benzamide] | 0.008 | > 10 | > 10 | > 10 | 29.4 µM
